Measurements as given in US5157019A, “Serine protease inhibitors” (Monsanto Company, priority 1991, dated 1992).
Like-named read-outs stand apart in the source and are kept apart here. Ends that are not written are not given here.

Columns and labels:
C1s = molecular target: T1, C1s (Homo sapiens, UniProt P09871); test: C1s assay by inhibition of fluid phase C4 activation; format: biochemical
T1 construct: prepared from pooled human plasma; from tissue; host or cells: pooled human plasma
T1 sequence (P09871 16-688): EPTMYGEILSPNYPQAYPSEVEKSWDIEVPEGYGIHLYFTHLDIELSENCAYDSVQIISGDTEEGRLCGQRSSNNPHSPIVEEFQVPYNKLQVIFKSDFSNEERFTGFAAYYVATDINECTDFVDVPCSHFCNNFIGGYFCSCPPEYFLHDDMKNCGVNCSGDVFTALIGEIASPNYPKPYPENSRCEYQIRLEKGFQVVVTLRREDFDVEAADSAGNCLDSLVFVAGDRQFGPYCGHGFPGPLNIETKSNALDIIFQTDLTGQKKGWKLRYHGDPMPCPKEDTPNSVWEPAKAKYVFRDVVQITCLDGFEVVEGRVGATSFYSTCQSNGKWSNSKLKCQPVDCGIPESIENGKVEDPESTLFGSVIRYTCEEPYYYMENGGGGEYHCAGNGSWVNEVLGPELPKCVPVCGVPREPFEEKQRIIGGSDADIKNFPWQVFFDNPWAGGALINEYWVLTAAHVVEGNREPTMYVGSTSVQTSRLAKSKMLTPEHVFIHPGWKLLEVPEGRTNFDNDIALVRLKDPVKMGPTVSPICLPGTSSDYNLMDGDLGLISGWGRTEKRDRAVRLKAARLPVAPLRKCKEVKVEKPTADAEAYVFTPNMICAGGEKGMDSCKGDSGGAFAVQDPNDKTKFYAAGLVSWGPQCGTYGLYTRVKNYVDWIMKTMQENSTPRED
Method: (§1) Highly purified C3, C4, Factor D, Factor B, and C1s were prepared from pooled human plasma. Factors B and C4 were radiolabeled by periodate oxidation of sialic acid residues, followed by reduction with tritiated sodium borohydride. In a representative experiment, a solution of 1.2 mg of factor B in 1.8 ml of PBS was treated with 70 μl of 0.1M NaIO4. After 10 min incubation on ice, excess reagent was removed by filtration over "SEPHADEX®" which is a matrix for gel chromatography (1.0 cm×20 cm). To the protein pool was added 60 μl of NaB[^3 H]4 solution and incubated for 30 min on ice. Labeled protein was separated from excess reagent by desalting or dialysis. Human C4 was radiolabeled in the same manner. Radiolabeled proteins were stored at -70° C. in PBS. The specific radioactivity of ^3 H factor B was about 10,000 CPM/μg and that of ^3 H-C4 was 5,000 CPM/μg.
The cleavage of C4 was studied by incubating 10 μg of tritiated C4 with 3-5 ng of C1s at 37° C. for 30 min in 100 μl of PBS (pH 7.10) containing different concentrations of inhibitor. The reaction was stopped by the addition of 2-mercaptoethanol. The extent of cleavage was analyzed by SDS-polyacrylamide gel electrophoresis. The stained bands corresponding to C4α and C4α' were cut out and sliced. The radioactivity of the fragments was measured by liquid scintillation counting. The percent cleavage of the reaction was calculated as follows: [formula]
(§2) Electrophoresis was carried out under reducing conditions in the Laemmli system using slab gel of 8% polyacrylamide. The gels were stained and destained (Fairbanks et al. Biochemistry (1971) 10:2606).
(§3) The percent inhibition of the reaction was calculated according to the following relationship: [formula]
(§4) A: % cleavage without inhibitor
(§5) B: % cleavage with inhibitor
(§6) The concentration inducing 50% inhibition was obtained by plotting the percent inhibition on a probability graph (National Blank Book Co., No. 12-083) on the ordinate and the log of the inhibitor concentration on the abscissa. From this graph, a 50% inhibition concentration IC50 was obtained and this value was employed to express the activity.

Factor D = molecular target: T2, Factor D (Homo sapiens, UniProt P00746); test: Factor D assay by inhibition of fluid phase Factor B activation; format: biochemical
T2 construct: prepared from pooled human plasma; from tissue; host or cells: pooled human plasma
Method: as §1
The effect of the peptides on Factor D-dependent cleavage of factor B was studied by incubating 3.5 μg of Factor B, 1.5 μg of C3(H2 O) and 0.2 μl of Factor D at 37° C. for 60 min in Mg-PBS containing different concentrations of inhibitor. Uncleaved Factor B and its fragments, Ba and Bb, were first separated by SDS-PAGE and analyzed as described above. The percent cleavage of the reaction was calculated as follows: [formula]
B=radioactivity (CPM) of uncleaved factor B
Bb=radioactivity (CPM) of fragment Bb
Ba=radioactivity (CPM) of fragment Ba
as §2, §3, §4, §5, §6

complement activation = test: Reverse passive arthus reaction (RPAR), histopathology of injection sites; format: in vivo, guinea pigs; parameters: key: 0 indicating no acute inflamation; 1 indication minimal acute inflammation; 2 indicating mild acute inflammation; 3 indicating moderate acute inflammation; conditions: guinea pig, intradermal injection of peptide without antibody
Method: These exemplary peptide inhibitors (peptides 13, 7 and 27) were assayed for in vivo activity in inhibiting complement activation using the reverse passive arthus reaction (RPAR). RPAR is a model of complement-mediated damage due to activation via interaction with antigen/antibody complexes. Female guinea pigs (400 gm) were pretreated intracardially with bovine serum albumin and Evans blue dye. Ninety minutes later they received bilateral intradermal injections of peptide inhibitor or control material in the thoracolumbar region. Injection sites were excised postmortem and fixed in 10% buffered formalin for pathological evaluation. The peptides were administered to obtain an initial level of […] in the circulatory system.
The histopathological results are outlined below. The degree of inflammation was scored as follows: 0 indicating no acute inflamation; 1 indication minimal acute inflammation; 2 indicating mild acute inflammation; and 3 indicating moderate acute inflammation.

Plasma Kallikrein = molecular target: T3, Plasma Kallikrein (Homo sapiens, UniProt P03952); test: Plasma kallikrein assay (Chromozym PK); format: biochemical; conditions: for Kallikrein % inhibition: 50 μM peptide; for inhibition at 100 µM: 100 μM peptide
T3 construct: purchased Sigma K-3126
Method: Buffer 150 mM Tris·HCl, pH 8.0
Substrate Benzyl-Pro-Phe-Arg-pNa (Chromozym PK, Boeringer Mannheim), 10 mM in deionized water.
Enzyme Plasma Kallikrein (Sigma, K-3126), 0.0312 μ/ml. Used undiluted.
Inhibitor Dissolved at desired concentrations in deionized water or DMSO plus deionized water depending on solubility.
4. Incubate mixture for 5 min at 25° C.
6. Measure rate spectrophotometrically at […] at 25° C.
2. Add appropriate volume of peptide solution
3. Add adjusted volume of buffer compensating for volume of peptide solution.
4. Add an adjusted volume of DMSO to maintain a final amount of 25 μl in the assay
5. Incubate mixture for 5 min at 25° C.
7. Measure rate spectrophotometrically at […] at 25° C.
Inhibition (%) is calculated in the same manner as in previous assays.

[1] = Table X, μM concentration at which protease was inhibited 50%, read-out: IC50 D
[2] = Tables VI and VIII, % 50, read-out: C1s, μM concentration listed for 50 % inhibition
[3] = Tables VI and VIII, % 50, read-out: Factor D, μM concentration listed for 50 % inhibition

T2 sequence (P00746 26-253): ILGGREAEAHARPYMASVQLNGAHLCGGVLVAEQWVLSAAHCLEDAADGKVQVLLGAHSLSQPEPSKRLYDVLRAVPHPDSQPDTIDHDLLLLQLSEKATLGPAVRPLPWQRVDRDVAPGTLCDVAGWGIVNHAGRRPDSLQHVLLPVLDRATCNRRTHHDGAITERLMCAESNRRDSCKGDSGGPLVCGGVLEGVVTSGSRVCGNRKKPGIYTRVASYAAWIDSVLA
T3 sequence (P03952 20-638): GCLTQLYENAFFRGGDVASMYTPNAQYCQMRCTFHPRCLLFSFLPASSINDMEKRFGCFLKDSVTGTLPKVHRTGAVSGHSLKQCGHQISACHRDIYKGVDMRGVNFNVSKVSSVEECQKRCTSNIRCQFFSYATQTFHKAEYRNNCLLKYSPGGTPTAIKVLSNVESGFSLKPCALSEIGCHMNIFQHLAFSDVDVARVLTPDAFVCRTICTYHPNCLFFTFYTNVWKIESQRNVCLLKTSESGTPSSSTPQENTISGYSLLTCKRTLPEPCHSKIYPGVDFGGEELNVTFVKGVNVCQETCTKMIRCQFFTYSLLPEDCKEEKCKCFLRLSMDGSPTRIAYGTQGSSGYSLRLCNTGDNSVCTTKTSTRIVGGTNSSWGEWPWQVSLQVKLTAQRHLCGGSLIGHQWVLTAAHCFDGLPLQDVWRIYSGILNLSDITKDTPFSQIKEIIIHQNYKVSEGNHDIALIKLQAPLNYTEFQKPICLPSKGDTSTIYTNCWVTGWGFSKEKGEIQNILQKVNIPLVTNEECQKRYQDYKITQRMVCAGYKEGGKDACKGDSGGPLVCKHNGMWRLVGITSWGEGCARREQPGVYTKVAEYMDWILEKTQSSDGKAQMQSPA

| IC50 (C1s; [2]) | IC50 (Factor D; [3]) | Compound | also measured |
| --- | --- | --- | --- |
| – | – | CC[C@H](C)[C@H](NC(=O)[C@H](CC(C)C)NC(=O)[C@H](Cc1ccccc1)NC(=O)[C@@H](NC(=O)[C@H](Cc1ccccc1)NC(=O)[C@@H]1CCCN1C(=O)[C@H](CCCCN)NC(=O)[C@H](CC(N)=O)NC(=O)[C@H](Cc1ccccc1)NC(=O)[C@H](CCCCN)NC(=O)[C@@H](NC(=O)[C@H](CCC(=O)O)NC(=O)[C@@H]1CCCN1C(=O)[C@@H]1CCCN1)C(C)C)C(C)C)C(=O)O [Peptide 1] | inhibition at 200 µM (C1s; 200 μM peptide): 0%; inhibition at 200 µM (Factor D; 200 μM peptide): 0% |
| – | – | AGRSLNPNRVTFKANRPFLVFIREVPLNTIIFLGRVANP [Peptide 27] | IC50 (C1s; Table X, μM concentration at which protease was inhibited 50%, read-out: IC50 C1S): 12 µM; IC50 (Factor D; [1]): < 25 µM; Degree of inflammation, mean score, protease inhibitor only (complement activation): 1 |
| 55 µM | 111 µM | IVRFNRPFLLII [Peptide 3] | – |
| 6 µM | 4 µM | IVRFNRPFLLIIVPTDTQNIFFLSKVTNPSKPR [Peptide 22] | Kallikrein % inhibition (Plasma Kallikrein): 58% |
| 34 µM | 53 µM | PNRVTFKANRPFLVFI [Peptide 2] | inhibition at 100 µM (Plasma Kallikrein): 21% |
| 6 µM | < 8 µM | RVTFKANRPFLVFIREVPLNTIIFLGRVANP [Peptide 21] | IC50 (Factor D; [1]): < 8 µM; inhibition at 100 µM (Plasma Kallikrein): 55% |
| 12 µM | 16 µM | VKFNKPFVFLLIEQNTKSPLFLGKVVNPTQK [Peptide 20] | Kallikrein % inhibition (Plasma Kallikrein): 0% |
